From patent EP2837626A1, “Indolinone derivatives as GRK5 modulators” (Max-Planck-Gesellschaft zur Förderung der Wissenschaften …, priority 2013, dated 2015) come the findings set out here.

The target of one assay is T1, full length GRK5 (Homo sapiens, UniProt P34947).
T1 construct: 6/2 fold concentrated full length GRK5 (Millipore, #14-714) in reaction buffer is added to each well; purchased Millipore 14-714
The experiment in a line: IC50 determination of compounds inhibiting GRK5 by ADP Glo Kinase Assay technology (Promega). Conditions: 20 nM GRK5, 18.7 µM ATP, 10 µM casein, 12 concentrations, triplicates, read-out: GRK5 IC50. Format: biochemical.

In another assay the target is T2, GRK5 (Homo sapiens, UniProt P34947).
T2 construct: purchased Millipore
The experiment in a line: IC50 determination of compounds inhibiting GRK5 by Millipore KinaseProfiler (radiometric filtration binding assay). Conditions: 2 mg/mL casein, 40 minutes at room temperature. The class given is biochemical. On the procedure: IC50 values are determined by a radiometric based filtration binding assay, namely Millipore KinaseProfiler™. GRK5 is incubated with 8 mM MOPS pH 7.0, 0.2 mM EDTA, 2 mg/mL casein, 10 mM MgAcetate and […] (specific activity approx. 500 cpm/pmol, concentration as required). The reaction is initiated by the addition of the MgATP mix. After incubation for 40 minutes at room temperature, the reaction is stopped by the addition of 3 % phosphoric acid solution. 10 µL of the reaction is then spotted onto a P30 filtermat and washed three times for 5 minutes in 75 mM phosphoric acid and once in methanol prior to drying and scintillation counting.

T1 sequence (P34947 whole entry): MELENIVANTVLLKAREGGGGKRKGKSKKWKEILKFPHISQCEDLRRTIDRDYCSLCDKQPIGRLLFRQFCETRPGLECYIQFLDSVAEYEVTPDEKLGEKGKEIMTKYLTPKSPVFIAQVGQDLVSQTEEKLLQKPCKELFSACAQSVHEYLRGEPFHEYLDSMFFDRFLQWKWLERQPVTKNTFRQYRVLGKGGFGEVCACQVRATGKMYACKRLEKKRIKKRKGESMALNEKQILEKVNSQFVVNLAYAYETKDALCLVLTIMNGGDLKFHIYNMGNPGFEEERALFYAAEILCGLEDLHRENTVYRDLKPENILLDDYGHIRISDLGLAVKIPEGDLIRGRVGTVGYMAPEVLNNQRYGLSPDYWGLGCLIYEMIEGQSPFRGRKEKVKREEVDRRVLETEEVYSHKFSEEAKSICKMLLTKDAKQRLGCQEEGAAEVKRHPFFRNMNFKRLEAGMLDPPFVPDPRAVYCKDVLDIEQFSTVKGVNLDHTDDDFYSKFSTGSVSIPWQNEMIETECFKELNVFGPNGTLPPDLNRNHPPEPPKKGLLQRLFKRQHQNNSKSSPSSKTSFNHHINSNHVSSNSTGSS
T2 sequence (P34947 whole entry): as above

Turning to `Cc1[nH]c(/C=C2\C(=O)Nc3ccc(C(=O)O)cc32)c(C)c1C(=O)NCCN1CCCC1` [Compound 2], the IC50 at full length GRK5 was < 5 µM.
As to `CC[C@@H](NC(=O)c1ccc2c(c1)/C(=C/c1[nH]c(C)c(C(=O)NCCN3CCCC3)c1C)C(=O)N2)c1ccccc1` [Compound 6, (3Z)-3-({3,5-dimethyl-4-[(2-pyrrolidin-1-ylethyl)carbamoyl]-1H-pyrrol-2-yl}methylene)-2-oxo-N-[(1R)-1-phenylpropyl]indoline-5-carboxamide], the IC50 at full length GRK5 was < 5 µM.
Consider `CC[C@@H](NC(=O)c1ccc2c(c1)/C(=C/c1[nH]c(C)c(C(=O)N3CCN(C)CC3)c1C)C(=O)N2)c1ccccc1` [Compound 7, (3Z)-3-({3,5-dimethyl-4-[(4-methylpiperazin-1-yl)carbonyl]-1H-pyrrol-2-yl}methylene)-2-oxo-N-[(1R)-1-phenylpropyl]indoline-5-carboxamide], for which, at full length GRK5, the IC50 is 5 to 20 µM.
Regarding `CCC(NC(=O)c1ccc2c(c1)/C(=C/c1[nH]c(C)c(C(=O)NCCN3CCCC3)c1C)C(=O)N2)c1ccc(F)c(F)c1` (stereo not drawn) [Compound 10, (3Z)-N-[1-(3,4-difluorophenyl)propyl]-3-({3,5-dimethyl-4-[(2-pyrrolidin-1-ylethyl)carbamoyl]-1H-pyrrol-2-yl}methylene)-2-oxoindoline-5-carboxamide], on full length GRK5, the IC50 is < 5 µM.
Same read-out and setting: the value for `CCC(NC(=O)c1ccc2c(c1)/C(=C/c1[nH]c(C)c(C(=O)NCCN3CCCC3)c1C)C(=O)N2)c1cccc(Cl)c1` (stereo not drawn) [Compound 11, (3Z)-N-[1-(3-chlorophenyl)propyl]-3-({3,5-dimethyl-4-[(2-pyrrolidin-1-ylethyl)carbamoyl]-1H-pyrrol-2-yl}methylene)-2-oxoindoline-5-carboxamide] was < 5 µM.
For `CCC(NC(=O)c1ccc2c(c1)/C(=C/c1[nH]c(C)c(C(=O)N3CCN(C)CC3)c1C)C(=O)N2)c1ccc(Cl)cc1` (stereo not drawn) [Compound 12, (3Z)-N-[1-(4-chlorophenyl)propyl]-3-({3,5-dimethyl-4-[(4-methylpiperazin-1-yl)carbonyl]-1H-pyrrol-2-yl}methylene)-2-oxoindoline-5-carboxamide], the IC50 at GRK5 and on full length GRK5 was < 5 µM each time.
`CCC(NC(=O)c1ccc2c(c1)/C(=C/c1[nH]c(C)c(C(=O)NCCN3CCCC3)c1C)C(=O)N2)c1ccc(Cl)cc1` (stereo not drawn) [Compound 13, (3Z)-N-[1-(4-chlorophenyl)propyl]-3-({3,5-dimethyl-4-[(2-pyrrolidin-1-ylethyl)carbamoyl]-1H-pyrrol-2-yl}methylene)-2-oxoindoline-5-carboxamide]: the IC50 on full length GRK5 was < 5 µM.
Still for that read-out and setting: the value for `Cc1[nH]c(/C=C2\C(=O)Nc3ccc(C(=O)N[C@H](C)c4ccccc4)cc32)c(C)c1C(=O)N1CCCCC1` [Compound 14, (3Z)-3-{[3,5-dimethyl-4-(piperidin-1-ylcarbonyl)-1H-pyrrol-2-yl]methylene}-2-oxo-N-[(1R)-1-phenylethyl]indoline-5-carboxamide] was < 5 µM; that for `Cc1[nH]c(/C=C2\C(=O)Nc3ccc(C(=O)N[C@H](C)c4ccccc4)cc32)c(C)c1C(=O)N1CCN(C)CC1` [Compound 15, (3Z)-3-({3,5-dimethyl-4-[(4-methylpiperazin-1-yl)carbonyl]-1H-pyrrol-2-yl}methylene)-2-oxo-N-[(1R)-1-phenylethyl]indoline-5-carboxamide] was < 5 µM.
With `Cc1[nH]c(/C=C2\C(=O)Nc3ccc(C(=O)N[C@H](C)c4ccccc4)cc32)c(C)c1C(=O)N1CCC[C@H]1CN1CCCC1` [Compound 16, (3Z)-3-[(3,5-dimethyl-4-{[(2S)-2-(pyrrolidin-1-ylmethyl)pyrrolidin-1-yl]carbonyl}-1H-pyrrol-2-yl)methylene]-2-oxo-N-[(1R)-1-phenylethyl]indoline-5-carboxamide], on GRK5, the IC50 is < 5 µM.
As for `COc1ccc([C@@H](C)NC(=O)c2ccc3c(c2)/C(=C/c2[nH]c(C)c(C(=O)N4CCN(C)CC4)c2C)C(=O)N3)cc1` [Compound 21, (3Z)-3-({3,5-dimethyl-4-[(4-methylpiperazin-1-yl)carbonyl]-1H-pyrrol-2-yl}methylene)-N-[(1R)-1-(4-methoxyphenyl)ethyl]-2-oxoindoline-5-carboxamide], the IC50 on full length GRK5 was < 5 µM.
Turning to `Cc1[nH]c(/C=C2\C(=O)Nc3ccc(C(=O)N[C@@H]4CCc5ccccc54)cc32)c(C)c1C(=O)N1CCC[C@@H]1CN1CCCC1` [Compound 30, (3Z)-N-[(1R)-2,3-dihydro-1H-inden-1-yl]-3-[(3,5-dimethyl-4-{[(2R)-2-(pyrrolidin-1-ylmethyl)pyrrolidin-1-yl]carbonyl}-1H-pyrrol-2-yl)methylene]-2-oxoindoline-5-carboxamide], the IC50 at GRK5 and at full length GRK5 was 5 to 20 µM each time.
On to `Cc1ccc([C@@H](C)NC(=O)c2ccc3c(c2)/C(=C/c2[nH]c(C)c(C(=O)N4CCN(C)CC4)c2C)C(=O)N3)cc1` [Compound 32, (3Z)-3-({3,5-dimethyl-4-[(4-methylpiperazin-1-yl)carbonyl]-1H-pyrrol-2-yl}methylene)-N-[(1R)-1-(4-methylphenyl)ethyl]-2-oxoindoline-5-carboxamide], for which the IC50 at full length GRK5 is < 5 µM.
For the compound `CC[C@@H](NC(=O)c1ccc2c(c1)/C(=C/c1[nH]c(C)c(C(=O)N3CCC[C@H]3CN3CCCC3)c1C)C(=O)N2)c1ccccc1` [Compound 46, (3Z)-3-[(3,5-dimethyl-4-{[(2S)-2-(pyrrolidin-1-ylmethyl)pyrrolidin-1-yl]carbonyl}-1H-pyrrol-2-yl)methylene]-2-oxo-N-[(1R)-1-phenylpropyl]indoline-5-carboxamide], the IC50 on GRK5 and on full length GRK5 was < 5 µM in each case.
Take `CC[C@H](NC(=O)c1ccc2c(c1)/C(=C/c1[nH]c(C)c(C(=O)N3CCC[C@H]3CN3CCCC3)c1C)C(=O)N2)c1ccccc1` [Compound 47, (3Z)-3-[(3,5-dimethyl-4-{[(2S)-2-(pyrrolidin-1-ylmethyl)pyrrolidin-1-yl]carbonyl}-1H-pyrrol-2-yl)methylene]-2-oxo-N-[(1S)-1-phenylpropyl]indoline-5-carboxamide]: the IC50 on GRK5 and on full length GRK5 was 5 to 20 µM throughout.
On to `CC[C@@H](NC(=O)c1ccc2c(c1)/C(=C/c1[nH]c(C)c(C(=O)N3CCC[C@@H]3CN3CCCC3)c1C)C(=O)N2)c1ccccc1` [Compound 48, (3Z)-3-[(3,5-dimethyl-4-{[(2R)-2-(pyrrolidin-1-ylmethyl)pyrrolidin-1-yl]carbonyl}-1H-pyrrol-2-yl)methylene]-2-oxo-N-[(1R)-1-phenylpropyl]indoline-5-carboxamide], for which the IC50 at GRK5 and on full length GRK5 was < 5 µM throughout.
For `Cc1cccc(C(C)NC(=O)c2ccc3c(c2)/C(=C/c2[nH]c(C)c(C(=O)N4CCN(C)CC4)c2C)C(=O)N3)c1` (stereo not drawn) [Compound 51, (3Z)-3-({3,5-dimethyl-4-[(4-methylpiperazin-1-yl)carbonyl]-1H-pyrrol-2-yl}methylene)-N-[1-(3-methylphenyl)ethyl]-2-oxoindoline-5-carboxamide], the IC50 on full length GRK5 lay within 5 to 20 µM.
For `CC[C@H](NC(=O)c1ccc2c(c1)/C(=C/c1[nH]c(C)c(C(=O)N3CCC(N4CCN(C)CC4)CC3)c1C)C(=O)N2)c1ccccc1` [Compound 52, (3Z)3-[(3,5-dimethyl-4-{[4-(4-methylpiperazin-1-yl)piperidin-1-yl]carbonyl}-1H-pyrrol-2-yl)methylene]-2-oxo-N-[(1S)-1-phenylpropyl]indoline-5-carboxamide], the half-inhibitory concentration (IC50) at GRK5 and at full length GRK5 was > 30 µM throughout.
Consider `CC[C@@H](NC(=O)c1ccc2c(c1)/C(=C/c1[nH]c(C)c(C(=O)NCCN(CC)CC)c1C)C(=O)N2)c1ccccc1` [Compound 61, (3Z)-3-[(4-{[2-(diethylamino)ethyl]carbamoyl}-3,5-dimethyl-1H-pyrrol-2-yl)methylene]-2-oxo-N-[(1R)-1-phenylpropyl]indoline-5-carboxamide], for which, on full length GRK5, the IC50 is < 5 µM.
As for `Cc1[nH]c(/C=C2\C(=O)Nc3ccc(C(=O)N[C@H](C)c4ccc(Cl)cc4)cc32)c(C)c1C(=O)N1CCCC1` [Compound 67, (3Z)-N-[(1R)-1-(4-chlorophenyl)ethyl]-3-{[3,5-dimethyl-4-(pyrrolidin-1-ylcarbonyl)-1H-pyrrol-2-yl]methylene}-2-oxoindoline-5-carboxamide], the IC50 on full length GRK5 was < 5 µM.
Take `CC[C@@H](NC(=O)c1ccc2c(c1)/C(=C/Nc1ccc(CN3CCCCC3)cc1)C(=O)N2)c1ccccc1` [Compound 69, (3Z)-2-oxo-N-[(1R)-1-phenylpropyl]-3-({[4-(piperidin-1-ylmethyl)phenyl]amino}methylene)-indoline-5-carboxamide]: the IC50 on full length GRK5 is < 5 µM.
As to `C[C@@H](NC(=O)c1ccc2c(c1)/C(=C/Nc1ccc(CN3CCCCC3)cc1)C(=O)N2)c1ccccc1` [Compound 78, (3Z)-2-oxo-N-[(1R)-1-phenylethyl]-3-({[4-(piperidin-1-ylmethyl)phenyl]amino}methylene)indoline-5-carboxamide], the IC50 at full length GRK5 was < 5 µM.
On the same count and under the same terms, the value for `COc1cccc([C@@H](C)NC(=O)c2ccc3c(c2)/C(=C/Nc2ccc(CN4CCCCC4)cc2)C(=O)N3)c1` [Compound 79, (3Z)-N-[(1R)-1-(3-methoxyphenyl)ethyl]-2-oxo-3-({[4-(piperidin-1-ylmethyl)phenyl]amino}methylene)indoline-5-carboxamide] was < 5 µM.
The same measure, in the same setting: the value for `C[C@@H](NC(=O)c1ccc2c(c1)/C(=C/Nc1ccc(CN3CCCCC3)cc1)C(=O)N2)c1cccc(Cl)c1` [Compound 80, (3Z)-N-[(1R)-1-(3-chlorophenyl)ethyl]-2-oxo-3-({[4-(piperidin-1-ylmethyl)phenyl]amino}methylene)indoline-5-carboxamide] was < 5 µM.
